Assay [1] concerns Interleukin 6 (IL-6) secretion in C2C12 cells. Briefly: IL-6 secretion (ELISA) of differentiated C2C12 cells exposed to pro-inflammatory cytokine mix (cytomix). In kind it is cell-based. The procedure: C2C12 Myoblasts, purchased from the American Type Culture Collection (ATCC) (ref. CRL-1772), were seeded at 8000 cells per well in a 96 well plate (Greiner, Kremsmünster, Austria) using a DMEM Glutamax 4.5 g D-glucose (Gibco, ref 31966021) supplemented with foetal bovine serum (FBS) 10% (PanBiotech, ref P190902), 1% PenStrep (Biowest) and 1% HEPES (Biowest). Cells were then differentiated for 6 days using a differentiation medium (DMEM Glutamax 4.5 g D-glucose (Gibco, ref 31966021), 2% Horse serum (Thermofisher, ref 160501229) 1% PenStrep and 1% HEPES). All the media were sterilized with a 0.45 μm filter unit (VWR). […] The medium was collected and an ELISA for Interleukin-6 were performed following the instruction provided by the supplier (Proteintech ref. KE10007). Finally, the absorbance at a wavelength of 450 nm was measured using a microplate plate reader (Fluostar Optima, BMG Labtech).
A general note: ELISA stands for enzyme-linked immunosorbent assay.

Assay [2] concerns inflammation in certain cell-based models. The settings on record: cited from earlier work.

Like-named read-outs stand apart in the source and are kept apart here.

As for `O=c1oc2cc(O)ccc2c2ccc(O)cc12` [Urolithin A], the “reduction of IL-6 secretion” value amounted to 25% in assay [1] (UA 6.25 μM alone, 24 h pre-treatment then cytomix 24 h) and 60% in assay [1] (UA 12.5 μM alone, 24 h pre-treatment then cytomix 24 h).
With `CC(O)CC(=O)[O-].[Na+]` (racemic) [BHB, DL-β-Hydroxybutyric acid sodium salt], the “impact on IL-6 secretion” value in assay [1] (BHB 5 μM alone, cytomix) was −0.007%. In assay [1] (higher dose of BHB alone, cytomix), the “reduction of IL-6 secretion” value was 32%. In addition, the “concentration at which the anti-inflammatory effect of BHB was observed” value in assay [2] (PMC6402511) was above 250 µM; in assay [2] (PMID: 25686106), “above 2 mM”.

Source of the values: patent US20260216127A1, “COMBINATIONS OF A UROTHILIN AND A KETONE BODY” (Amazentis SA, priority 2022, published 2026).
